The values that follow come from patent US20230012368A1 (Hoffmann-La Roche Inc., priority 2018, published 2023).

In the assay the test system is Acinetobacter baumannii ATCC 17978. Kind of assay: Antimicrobial susceptibility testing: 90% growth inhibitory concentration (IC90) determination. The assay is classed as cell-based. To be noted: 90% growth inhibitory concentration, Acinetobacter baumannii ATCC17978, Iso-Sensitest broth, OD 600 nm over 16h, read-out: ATCC17978 IC90. The method in brief: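 Compounds serially twofold diluted (e.g. 50 to 0.097 μM final) in Iso-Sensitest broth, inoculated at ~5×10^(5) CFU/ml, incubated at 35±2° C. OD600 read every 20 minutes over 16h. IC90 taken as concentration inhibiting 90% of growth during logarithmic phase.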

Setting [1] is: Acinetobacter baumannii, ATCC17978, 16 h.

Counter-ions that a name gives are not always drawn. Like-named read-outs stand apart in the source and are kept apart here.

As usually defined, the IC90 is the concentration at which the effect reaches the 90% level.

As for `CCc1cc(Nc2nccn3c(-c4ccc(O)c(F)c4F)cnc23)ccc1C(=O)NCCCN` [Example 289, N-(3-aminopropyl)-4-[[3-(2,3-difluoro-4-hydroxyphenyl)imidazo[1,2-a]pyrazin-8-yl]amino]-2-ethylbenzamide;hydrochloride], the IC90 under setting [1] is 4600 nM. On to `Cc1cc(Nc2nccn3c(-c4ccc(OCC#N)c(F)c4F)cnc23)ccc1C(=O)NCCCNC(=O)[C@@H]1C[C@](C)(O)CN1` [Example 134, (2S,4S)-N-[3-[[4-[[3-[4-(cyanomethoxy)-2,3-difluoro-phenyl]imidazo[1,2-a]pyrazin-8-yl]amino]-2-methyl-benzoyl]amino]propyl]-4-hydroxy-4-methyl-pyrrolidine-2-carboxamide formate], for which the concentration for an effect of 90% (IC90) under setting [1] was 80 nM.

For the compound `COc1ccc(-c2cnc3c(Nc4ccc(C(=O)N(C)CCCC(=O)O)c(C)c4)nccn23)cc1F` [Example 174, 4-[[4-[[3-(3-fluoro-4-methoxyphenyl)imidazo[1,2-a]pyrazin-8-yl]amino]-2-methylbenzoyl]-methylamino]butanoic acid], the IC90 under setting [1] turned out to be 8900 nM. Same read-out and setting: the result for `COc1ccc(-c2cnc3c(Nc4ccc(C(=O)N(C)CC5OCC(N)CO5)c(C)c4)nccn23)cc1` (stereo not drawn) [Example 153, N-((5-Amino-1,3-dioxan-2-yl)methyl)-4-((3-(4-methoxyphenyl)imidazo[1,2-a]pyrazin-8-yl)amino)-N,2-dimethylbenzamide] reads 530 nM. Same read-out and setting: the result for `CCc1cc(Nc2nccn3c(-c4ccc(OC)c(F)c4F)cnc23)ccc1C(=O)NCCN1CCC(C(N)=O)C1` (stereo not drawn) [Example 561, 1-[2-[[4-[[3-(2,3-difluoro-4-methoxy-phenyl)imidazo[1,2-a]pyrazin-8-yl]amino]-2-ethyl-benzoyl]amino]ethyl]pyrroli-dine-3-carboxamide] reads 190 nM; that for `COc1ccc(-c2cnc3c(Nc4ccc(C(=O)NCC5CCN(C)CC5)c(C)c4)nccn23)cc1` [Example 52, 4-[[3-(4-methoxyphenyl)imidazo [1,2-a]pyrazin-8-yl]amino]-2-methyl-N-[(1-methylpiperidin-4-yl)methyl]benzamide], 750 nM; that for `CCc1cc(Nc2nccn3c(-c4ccc(OC)c(F)c4F)cnc23)ccc1C(=O)NCCNC(=O)NCCCN` [Example 335, N-[2-(3-aminopropylcarbamoylamino)ethyl]-4-[[3-(2,3-difluoro-4-methoxyphenyl)imidazo[1,2-a]pyrazin-8-yl]amino]-2-ethylbenzamide], 430 nM.

For the compound `Cc1cc(Nc2nccn3c(-c4ccc(Cl)c(F)c4F)cnc23)ccc1C(=O)N[C@@H](C)CN` [Example 258, N-[(2S)-1-aminopropan-2-yl]-4-[[3-(4-chloro-2,3-difluorophenyl)imidazo[1,2-a]pyrazin-8-yl]amino]-2-methylbenzamide;hydrochlo-ride], the concentration for an effect of 90% (IC90) under setting [1] worked out at 3600 nM. Turning to `Cc1cc(Nc2nccn3c(-c4ccc(OC(F)F)cc4)cnc23)ccc1C(=O)NCCCCCCN` [Example 21, N-(6-aminohexyl)-4-((3-(4-(difluoromethoxy)phenyl)imidazo[1,2-a]pyrazin-8-yl)amino)-2-methylbenzamide hydrochloride], the IC90 under setting [1] is 120 nM. Still for that read-out and setting: next, `COc1ccc(-c2cnc3c(Nc4ccc5c(c4)CCN(C)C5=O)nccn23)c(F)c1F` [Example 391, 6-[[3-(2,3-difluoro-4-methoxy-phenyl)imidazo[1,2-a]pyrazin-8-yl]amino]-2-methyl-3,4-dihydroisoquinolin-1-one]: 51 nM; `CCc1cc(Nc2nccn3c(-c4ccc(OCC#N)c(F)c4F)cnc23)ccc1C(=O)NCCNC(=O)[C@@H](N)CN` [Example 145, 4-[[3-[4-(cyanomethoxy)-2,3-difluoro-phenyl]imidazo[1,2-a]pyrazin-8-yl]amino]-N-[2-[[(2S)-2,3-diaminopropanoyl]amino]ethyl]-2-ethyl-benzamide formate]: 150 nM; `COc1ccc(-c2cnc3c(Nc4ccc(C(=O)N[C@H](C)CNC(C)=N)c(Cl)c4)nccn23)c(F)c1F` [Example 501, 2-chloro-4-[[3-(2,3-difluoro-4-methoxyphenyl)imidazo[1,2-a]pyrazin-8-yl]amino]-#N!- [(2#R!)-1-(ethanimidoylamino)propan-2-yl]benzamide]: 69 nM.

As to `Cc1cc(Nc2nccn3c(-c4ccc(OC(F)F)cc4)cnc23)ccc1C(=O)NCC(=O)N1CCOCC1` [Example 252, 4-[[3-[4-(difluoromethoxy)phenyl]im-idazo[1,2-a]pyrazin-8-yl]amino]-2-methyl-N-(2-morpholin-4-yl-2-oxoethyl)benzamide], under setting [1], the 90% effect concentration (IC90) came to 2800 nM. Still for that read-out and setting: next, `CCc1cc(Nc2nccn3c(-c4ccc(Oc5ccncn5)c(F)c4F)cnc23)ccc1C(=O)NCCNC(=O)[C@H](N)CCCNC(=N)N` [Example 433, N-[2-[[(2R)-2-amino-5-guanidino-pentanoyl]amino]ethyl]-4-[[3-(2,3-difluoro-4-pyrimidin-4-yloxy-phenyl)imidazo[1,2-a]pyrazin-8-yl]amino]-2-ethyl-benzamide; formic acid]: 460 nM; `COc1ccc(-c2cnc3c(Nc4ccc(C(=O)NCC5CCOC5)c(C)c4)nccn23)cc1F` (stereo not drawn) [Example 70, 4-((3-(3-fluoro-4-methoxyphenyl)imidazo [1,2-a]pyrazin-8-yl)amino)-2-methyl-N-((tetrahydrofuran-3-yl)methyl)benzamide]: 700 nM.

Turning to `CCc1cc(Nc2nccn3c(-c4ccc(Oc5ncccn5)c(F)c4F)cnc23)ccc1C(=O)NCCNC(=O)[C@H](N)CCNC(=N)N` [Example 439, N-[2-[[(2R)-2-amino-4-guanidino-butanoyl]amino]ethyl]-4-[[3-(2,3-difluoro-4-pyrimidin-2-yloxy-phenyl)imidazo[1,2-a]pyrazin-8-yl]amino]-2-ethyl-benzamide; formic acid], the IC90 was 340 nM.

`CCN(CC)C(=O)c1ccc(Nc2nccn3c(-c4ccc(OC)c(Cl)c4)cnc23)cc1` [Example 215, 4-[[3-(3-chloro-4-methoxyphenyl)imidazo[1,2-a]pyrazin-8-yl]amino]-N,N-diethylbenzamide]: under setting [1], the concentration for an effect of 90% (IC90) was 680 nM.

Turning to `COc1ccc(-c2cnc3c(Nc4ccc(C(=O)NCCC5CCNCC5)c(C)c4)nccn23)cc1` [Example 191, 4-[[3-(4-methoxyphenyl)imidazo[1,2-a]pyrazin-8-yl]amino]-2-methyl-N-(2-piperidin-4-ylethyl)benzamide;hydrochlo-ride], the concentration for an effect of 90% (IC90) under setting [1] came to 330 nM. For `COc1ccc(-c2cnc3c(Nc4cc(C)c(C(=O)NCCCN)c(F)c4)nccn23)c(F)c1F` [Example 427, N-(3-aminopropyl)-4-((3-(2,3-difluoro-4-methoxyphenyl)imidazo[1,2-a]pyrazin-8-yl)amino)-2-fluoro-6-methylbenzamide formate], under setting [1], the IC90 stood at 690 nM. Regarding `COc1ccc(-c2cnc3c(Nc4ccc(C(=O)N(C)C)cc4)nccn23)cc1Cl` [Example 180, 4-[[3-(3-chloro-4-methoxyphenyl)imidazo[1,2-a]pyrazin-8-yl]amino]-N,N-dimethylbenzamide;2,2,2-trifluoroacetic acid], the IC90 under setting [1] was determined as 730 nM. On to `Cc1cc(Nc2nccn3c(-c4ccc(Cl)c(F)c4F)cnc23)ccc1C(=O)NCCC1CCN(C)CC1` [Example 244, 4-[[3-(4-chloro-2,3-difluorophenyl)imidazo[1,2-a]pyrazin-8-yl]amino]-2-methyl-N-[2-(1-methylpiperidin-4-yl)ethyl]benzamide], for which, under setting [1], the concentration for an effect of 90% (IC90) worked out at 440 nM.
